The results in this text go back to US4536502A (priority 1982, dated 1985).

Test [1] deals with Peronospora tabacina. Kind of test: Greenhouse test on tobacco mildew. The test is classed as in vivo, Peronospora tabacina (on Nicotiana tabacum, Samson variety). The settings on record: for inhibition at 15 µg/mL: dose of 15 mg/liter; for inhibition at 500 µg/mL: dose of 500 mg/liter. The text has this: Greenhouse test on tobacco mildew
The procedure of the previous example is followed, except that the plants are tobacco plants (Nicotiana tabacum) of the Samson variety, and that these plants are contaminated with spores of Peronospora tabacina, which is responsible for tobacco mildew.
Under these conditions, it was observed that, for the compounds or mixtures of compounds described in the above examples, the minimum inhibitory concentrations causing from 95 to 100% inhibition of the fungus in question (MIC 95-100) are respectively as follows:
In this experiment, the observed percentage inhibition of the development of the fungus in question was between 20% and 90%: […]

For test [2], the system named is Phytophthora infestans. In words: whole plant or invertebrate. The settings on record: in Solanum lycopersicum, read-out: percentage inhibition of the development of the fungus. The test is classed as in vivo.
The test system of test [3] is Tetranychus urticae koch, parthenogenetic females. In words: Acaricidal activity by contact-ingestion. The class given is in vivo. The settings on record: bean leaves treated by dipping, three days after contamination, average of two experiments. How it is done:
Acaricidal activity by contact-ingestion
(foliage treated by dipping: Tetranychus urticae koch, parthenogenetic females).
An aqueous emulsion of the active ingredient to be tested is prepared by grinding the latter, in a Potter mill, in water containing 0.02% of Tween 80. The aqueous emulsion is then brought to the desired concentration by dilution with water containing 0.01% of Scurol O.
Bean plants (Phaseolus vulgaris--Contender variety) at the "cotyledonary leaf" stage are used. Each plant is treated by dipping the leaves for 10 seconds in the aqueous emulsion containing the active ingredient to be tested, at the desired concentration, two plants being used for each concentration. The experiment was carried out for active ingredient concentrations ranging from 2,000 mg/liter to 10 mg/liter. The bean plants are kept alive by immersing the roots and the base of the stem in distilled water.
After the surface of the foliage has dried, contamination is carried out by depositing, on each bean leaf, a highly contaminated leaf fragment produced by mite breeding. This leaf fragment is removed after 24 hours.
Three days after contamination, the number of dead mites and the number of living mites are counted under a binocular magnifying glass.
The percentage mortality is thus determined for each concentration (average of two experiments). […]

The mark [4] stands for this setting: read-out: percentage inhibition of the development of the fungus.

Usually inhibition stands for the relative decrease from the control value, in per cent. As to `N#Cc1nc2ccccc2[nH]1` [2-Cyanobenzimidazole, 2-cyanobenzimidazole, reference compound], the inhibition at 1000 µg/mL in test [1] (dose of 1,000 mg/liter, read-out: % inhibition (antifungal activity)) is 0%. Regarding `Cc1cc2nc(C#N)n(S(=O)(=O)N(C)C)c2cc1C` [Compound 8], in test [2], the inhibition at 500 µg/mL was 20 to 90%. The same measure, in the same setting: then `CN(C)S(=O)(=O)n1c(C#N)nc2cc(C(C)(C)C)ccc21` [Compound 11], with 20 to 90%. For `CS(=O)(=O)n1c(C#N)nc2ccccc21` [Compound 16], the inhibition at 15 µg/mL in test [1] (setting [4]) fell in the range of 20 to 90%. For the compound `CS(=O)(=O)n1c(C#N)nc2c(Cl)cc(Cl)cc21` [Compound 17], in test [2], the inhibition at 15 µg/mL lay in the range of 20 to 90%. For the compound `CC(C)S(=O)(=O)n1c(C#N)nc2c(Cl)cccc21` [Compound 21], the inhibition at 8 µg/mL in test [1] (dose of 8 mg/liter, read-out: percentage inhibition of the development of the fungus) lay within 20 to 90%.

`CC(C)S(=O)(=O)n1c(C#N)nc2ccccc21` [Compound 22]: the inhibition at 15 µg/mL in test [1] (setting [4]) lay within 20 to 90%. For the compound `COc1cc2c(nc(C#N)n2S(=O)(=O)N(C)C)c([N+](=O)[O-])c1OC` [Compound 28], the inhibition at 500 µg/mL in test [1] (setting [4]) and in test [2] was 20 to 90% throughout. Take `CN(C)S(=O)(=O)n1c(C#N)nc2c(Br)cc(Br)cc21` [Compound 39]: the inhibition at 8 µg/mL in test [2] fell in the range of 20 to 90%. In the case of `CN(C)S(=O)(=O)n1c(C#N)nc2c(N)cccc21` [Compound 42], the inhibition at 500 µg/mL in test [1] (setting [4]) lay within 20 to 90%. Consider `Cc1cc(Br)cc2c1nc(C#N)n2S(=O)(=O)N(C)C` [Compound 43], for which the inhibition at 500 µg/mL in test [2] lay within 20 to 90%. As to `CN(C)S(=O)(=O)n1c(C#N)nc2c(Cl)c(Cl)ccc21` [Compound 45], the inhibition at 4 µg/mL in test [2] lay in the range of 20 to 90%. With `Cc1c(Cl)ccc2c1nc(C#N)n2S(=O)(=O)N(C)C` [Compound 50], the inhibition at 500 µg/mL in test [2] was in the range of 20 to 90%. As for `N#Cc1nc2c(Cl)cc(Cl)cc2n1S(=O)(=O)N1CCCC1` [Compound 57], the inhibition at 15 µg/mL in test [1] (setting [4]) lay in the range of 20 to 90%. `CN(C)S(=O)(=O)n1c(C#N)nc2c(C(F)(F)F)cc(Cl)cc21` [Compound 61]: the “LC90, concentration which causes 90% mortality of the mites” value in test [3] was 2,000 mg/liter. `Cc1c([N+](=O)[O-])ccc2c1nc(C#N)n2S(=O)(=O)N(C)C` [Compound 64]: the inhibition at 15 µg/mL in test [1] (setting [4]) was 20 to 90%. On to `CN(C)S(=O)(=O)n1c(C#N)nc2c(C(F)(F)F)cc(C(F)(F)F)cc21` [Compound 70], for which, in test [3], the “LC90, concentration which causes 90% mortality of the mites” value came to 10 mg/L.
